From patent US10884004B2, “Taggable fluorescent probe for calcium ion detection” (The University of Tokyo, priority 2016, dated 2021)

Key:
[1] = tested on: HEK 293T/Halo-RimZF-CAAX; experiment: staining / localization in HEK 293T cells expressing HaloTag protein on the cell membrane; assay type: cell-based; details: 5 μM probe, Ringer's solution, 30 minutes, room temperature
Protocol: (§1) HEK 293T cells (GenHunter) were cultured in Dulbecco's Modified Eagle's Medium (DMEM) (Wako) containing 10% FBS, 4 mM L-glutamine (Wako), and 1 mM sodium pyruvate (Wako) at 37° C. in an atmosphere of 5% CO2. For nerve cells, a fetus was removed from Sprague-Dawley rat on day 21 of pregnancy under anesthesia, and the hippocampus immediately extracted from the fetal brain was digested with trypsin (Invitrogen) and DNase I (Sigma) to separate nerve cells. The nerve cells were cultured on a monolayer of glial cells in a Neurobasal A medium (Invitrogen) containing 2% B-27 supplement (Invitrogen), 1 mM sodium pyruvate (Wako), 1% glutamax (Invitrogen), 1% penicillin-streptomycin mixed solution (nacalai tesque) at 37° C. in an atmosphere of 5% CO2.
Next, a DNA fragment encoding HaloTag and a DNA fragment encoding RimZF were fused by PCR. At this time, a DNA fragment expressing a fusion protein of HaloTag, RimZF, and CAAX motif was obtained by adding a DNA sequence encoding a CAAX motif of the KRas gene (KMSKDGKKKKKKSKTKC-VIM) to the primer. […]
(§2) Fluorescence images were acquired using an inverted microscope (IX-71, Olympus), an EM-CCD camera (Andor, iXon), an objective lens ([…]), and a filter set for RFP. […]

[2] = tested on: Rat hippocampus-derived nerve cells; experiment: Ca2+ imaging on electrical stimulation of probe-labeled hippocampus-derived nerve cells; assay type: cell-based; details: electrical stimulation 10 times at 100 Hz; HaloTag fusion protein expressed in nerve cells
Protocol: as §1
A DNA fragment obtained by fusing a sequence encoding a HaloTag protein in series on the C-terminal side of the DNA sequence encoding the vesicular membrane […] transporter (VGLUT1) was subcloned into a lentiviral vector (pLenti6PW) to prepare pLenti vglut1-chalo. […]
as §2

[3] = tested on: HEK 293T/Halo-RimZF-CAAX; experiment: Ca2+ imaging on ionomycin stimulation of probe-labeled HEK 293T/Halo-RimZF-CAAX; assay type: cell-based; details: ionomycin (10 μM); local Ca2+ signal on the cell membrane
Protocol: (§3) HEK 293T cells were seeded in metal rings on a cover glass coated with 0.01% collagen and 25 μg/ml poly-L-lysine (nacalai tesque) 16 hours after gene transfer so that the number of cells per ring was 40,000 and cultured at 37° C. and a carbon dioxide concentration of 5%. Three and a half hours later, the extracellular fluid was replaced with Ringer's solution (5 mM HEPES, 150 mM NaCl, 4 mM KCl, 2 mM CaCl2, 1 mM MgCl2, 0.1% glucose, pH 7.2) containing a Ca^2+ probe (compound 14 or Calcium Green, AM (Invitrogen)) or a fluorescent ligand (halo TMR, halo Oregon) (final concentration 5 μM) and 0.02% Plulonic F127 and left to stand at room temperature for 30 minutes while being shielded from light. […]
as §2
In addition, ionomycin was added to a probe-labeled HEK 293T/Halo-RimZF-CAAX in order to see the response characteristics to the Ca^2+ signal induced by the ionophore, and then changes with time of the fluorescence intensity were measured (FIG. 5). […]

[4] = in situ calibration of the labeled probe in fixed, permeabilized HEK 293T/Halo-RimZF-CAAX; assay type: cell-based; details: probe labeled on HEK 293T/Halo-RimZF-CAAX, 4% PFA fixed, 20 μM digitonin
Protocol: as §3, with “light. The cells labeled with compound 14 and the fluorescent ligand was then exchanged with serum-free DMEM, removal of probes that were liberated at 5% carbon dioxide concentration and 37° C. was carried out for 30 minutes, and the extracellular solution was exchanged again with Ringer's solution.” for “light.”
The labeled HEK 293T/Halo-RimZF-CAAX was immobilized with 4% PFA/PBS for 10 minutes, subjected to membrane permeabilization with 20 μM digitonin, and a change in fluorescence when the Ca^2+ concentration of the extracellular solution was changed was measured.
Next, Ca^2+ response characteristics of the labeled probe were evaluated by in situ calibration.

[5] = in vitro Ca2+ titration of the esterase hydrolysate of Compound 14 in Ca2+ buffer (spectrofluorophotometer); assay type: binding; details: hydrolysate obtained by esterase treatment; buffer with adjusted Ca2+ concentration (100 mM KCl, 30 mM MOPS)
Protocol: A 100 μL PBS solution containing Compound 14 (final concentration 80 μM), Pluronic F127 (0.2%), and Esterase Pseudomonas fluorescens (0.42 units/μL) (SIGMA) was prepared and hydrolysis reaction was carried out at 37° C. To follow the time course of the reaction, a part of the sample was taken during the reaction and the fluorescence intensity in 10 mM Ca^2+ buffer was measured with a spectrofluorophotometer (JASCO, FP-6500). When the fluorescence intensity ceased to change almost completely, the reaction was stopped to obtain a hydrolysate of Compound 14.
A free Ca^2+ concentration in a buffer containing 100 mM KCl and 30 mM 3-morpholinopropanesulfonic acid (MOPS) was adjusted using a Ca-ethylene glycol tetraacetic acid (EGTA) system (0-1 μM), a Ca-nitrilotriacetic acid (NTA) system (3.2 μM-794.3 μM), an unbuffered system (CaCl2) (3.2 mM-10 mM). The adjustment of free Ca^2+ concentration in the Ca-EGTA system or in the Ca-NTA system was carried out using the following formula (1). […]
In order to evaluate the chemical characteristics of the synthesized Compound 14, a hydrolysate was obtained by esterase treatment according to the above method, and the fluorescence intensity in a buffer in which the Ca^2+ concentration was adjusted was measured with a spectrofluorophotometer.

## CC(=O)OCOC(=O)COc1cc(NC(=O)c2ccc3c(c2)C(=O)OC32c3cc(Cl)c(OC(C)=O)cc3Oc3cc(N4CC(C(=O)NCCOCCOCCCCCCCl)C4)c(Cl)cc32)ccc1N(CC(=O)OCOC(C)=O)CC(=O)OCOC(C)=O (centres unmarked) [Compound 14, bis(acetoxymethyl) 2,2′-((4-(3′-acetoxy-2′,7′-dichloro-6′-(3-((2-(2-((6-chlorohexyl)oxy)ethoxy)ethyl)carbamoyl)azetidin-1-yl)-3-oxo-3H-spiro[isobenzofuran-1,9′-xanthene]-5-carboxylic acid amido)-2-(2-(acetoxymethoxy)-2-oxoethoxy)phenyl)azanediyl) diacetate]
[1]
  localization of fluorescence after staining: fluorescence localized on the cell membrane on which the HaloTag protein is expressed was observed
[2]
  Ca2+ signal change on electrical stimulation: a Ca^2+ signal change corresponding to the stimulus was observed
[3]
  change in fluorescence intensity due to ionomycin stimulation: increased the fluorescence intensity
[4]
  Fmax/Fmin: 4.7
[5]
  Fmax/Fmin (fluorescence intensity of Ca2+-bound vs unbound probe): 10.8
